Counter-ions that a name gives are not always drawn.
What was measured:
[1] = Bioavailability in male beagles; type: in vivo; details: beagle, dog, plasma, po; male beagles (dogs), intravenous or peroral 3 mg/kg, n=3; read-out: bioavailability (BA)
Method: (§1) A test compound was administered to male rats intravenously (1 or 3 mg/kg) or perorally (30 mg/kg), and to male beagles intravenously or perorally (3 mg/kg). After administration, blood was collected at designated times, to thereby obtain plasma samples.

[2] = Distribution in the brain (brain-to-plasma partition coefficient); type: in vivo; details: rat, male rats, intravenous bolus then constant-rate infusion, steady state
Method: Under anesthesia, a test drug was intravenously administered to male rats (1 to 4 mg/kg) and then intravenously administered (14 to 95 μg/kg) at a constant rate. At two hours after starting the infusion, when a steady state was thought to have been reached, the whole blood was collected from each rat and the brain was excised. The concentrations of test drug in brain samples and plasma samples were determined using LC-MS/MS, and the brain-to-plasma partition coefficient (Kp value) was calculated (n=6 or 9).

[3] = tested on: beagles; assay: Toxicity test: single oral administration to dogs; type: in vivo; details: male beagles, single peroral
Method: An encapsulated test drug was forcedly administered to beagles, and acute toxicity of the drug was studied.
Compound of Example 34a was singly perorally administered to male beagles at a dose of 30 and 100 mg/kg. […] General conditions of the beagles were observed, and hematologic and blood biochemical tests were carried out.

[4] = target: T1, human GHS-R1a (Homo sapiens, UniProt Q92847); assay: Agonistic activity by use of a cell line stably expressing human GHS-R1a (intracellular calcium increase); type: cell-based; details: hGHS-R1a/CHO cells, percent increase in intracellular calcium vs 100 nM ghrelin; read-out: GHS-R agonistic activity (EC50: nM)
T1 construct: expressed in transfected cells
Method: CHO-K1 cells were transfected with human GHS-R1a genes, to thereby provide cells stably expressing GHS-R1a (hGHS-R1a/CHO), and the agonistic activity of each compound was evaluated by use of the cells based on percent increase in intracellular calcium as an index.
The hGHS-R1a/CHO cells were inoculated at 6×10^4 cells/well in a 96-well plate (Clear bottom/Black plate, product of Corning), and cultured in Ham's F12 medium containing 10% fetal bovine serum at 37° C. and 5% CO2 for 18 hours. After culture, the medium was removed, and then the hGHS-R1a/CHO cells were cultured for two hours in a Hanks' balanced salt solution/HEPES (HBSS/HEPES, 100 μL) containing a calcium fluorescent indicator (4 μM Fluo-3AM, product of Dojin), 2 mM Probenecid, 0.1% Pluronic F-127, and 0.1% BSA, whereby the indicator was incorporated into the cells. After washing the cells, HBSS/HEPES (175 μL/well) containing 2 mM Probenecid and 0.1% BSA was added to the plate, and the fluorescence before and after addition of each test compound was determined by means of FLEXstation (Ex: 485 nm, Em: 525 nm, product of Molecular Devices). Each test compound was multi-fold diluted with dimethyl sulfoxide and then diluted with HBSS/HEPES containing 2 mM Probenecid, 0.04% Pluronic F-127, and 0.1% BSA, to thereby attain a final concentration of interest. The thus-diluted solution (25 μL/well) was added to the wells.
Agonistic activity(%)=(A−B)/(C−D)×100
A: Fluorescence intensity after addition of test compound
B: Fluorescence intensity before addition of test compound
C: Fluorescence intensity after addition of 100 nM ghrelin
D: Fluorescence intensity before addition of ghrelin

[5] = Bioavailability in male rats; type: in vivo; details: rat, plasma, oral, intravenous 1 or 3 mg/kg, peroral 30 mg/kg, n=3, read-out: bioavailability (BA)
Method: as §1

[6] = target: T2, CYP3A4 (Homo sapiens, UniProt P08684); assay: CYP3A4 inhibitory activity, human liver microsomes, midazolam hydroxylation; type: in vitro ADME
T2 construct: determined by use of human liver microsomes based on the midazolam hydroxylation activity as an index; from tissue; host or cells: human liver microsomes
Method: The in vitro CYP3A4 inhibitory activity was determined by use of human liver microsomes based on the midazolam hydroxylation activity as an index, and the Ki values were calculated.

[7] = tested on: model rats with IL-1β-induced cachexia; assay: Improvement of cachexia induced by IL-1β; type: in vivo; details: SD rats, rmIL-1β into cerebral ventricle, peroral 100 mg/kg
From the text: By use of model rats with IL-1β-induced cachexia, the effects of a test compound on ameliorating reduction in body weight and in food intake were examined.
SD rats (male, 8-week old, 270 to 340 g, Japan Charles River) were conditioned in a cage (one rat/cage), and were allowed water and a diet (CRF-1, product of Oriental Yeast Co., Ltd.) ad libitum. The illumination conditions employed in the house were as follows: 10:30 to 22:30 (dark) and 22:30 to 10:30 (light).
An osmotic pump (Mini-Osmotic Pump Model 2001, product of ALZET, filled with saline) was connected to a canula, and the canula was inserted into the cerebral ventricle of a rat. The rats obtained were conditioned for three days, and the osmotic pump was changed to another osmotic pump filled with recombinant mouse IL-1β (rmIL-1β). By means of the pump, rmIL-1β was continuously injected into the cerebral ventricle ([…]), to thereby induce cachexia. Two days after starting of injection of IL-1β, a test compound dissolved in 0.5% methylcellulose solution was perorally administered to each rat just before switching-off the light. During the period of administration of the test compound, the body weight and the food intake were measured every 24 hours.

T1 sequence (Q92847 whole entry): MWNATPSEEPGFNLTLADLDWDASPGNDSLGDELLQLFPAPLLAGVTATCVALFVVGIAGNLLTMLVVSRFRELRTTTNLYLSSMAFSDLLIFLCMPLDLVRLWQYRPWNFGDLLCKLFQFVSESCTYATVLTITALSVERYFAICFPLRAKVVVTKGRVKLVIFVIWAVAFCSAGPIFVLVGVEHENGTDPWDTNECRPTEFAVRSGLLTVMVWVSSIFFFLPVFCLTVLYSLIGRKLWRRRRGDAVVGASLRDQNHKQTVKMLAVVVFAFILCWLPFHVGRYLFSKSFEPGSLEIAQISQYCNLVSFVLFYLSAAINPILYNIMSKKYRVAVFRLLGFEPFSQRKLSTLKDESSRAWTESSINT
T2 sequence (P08684 whole entry): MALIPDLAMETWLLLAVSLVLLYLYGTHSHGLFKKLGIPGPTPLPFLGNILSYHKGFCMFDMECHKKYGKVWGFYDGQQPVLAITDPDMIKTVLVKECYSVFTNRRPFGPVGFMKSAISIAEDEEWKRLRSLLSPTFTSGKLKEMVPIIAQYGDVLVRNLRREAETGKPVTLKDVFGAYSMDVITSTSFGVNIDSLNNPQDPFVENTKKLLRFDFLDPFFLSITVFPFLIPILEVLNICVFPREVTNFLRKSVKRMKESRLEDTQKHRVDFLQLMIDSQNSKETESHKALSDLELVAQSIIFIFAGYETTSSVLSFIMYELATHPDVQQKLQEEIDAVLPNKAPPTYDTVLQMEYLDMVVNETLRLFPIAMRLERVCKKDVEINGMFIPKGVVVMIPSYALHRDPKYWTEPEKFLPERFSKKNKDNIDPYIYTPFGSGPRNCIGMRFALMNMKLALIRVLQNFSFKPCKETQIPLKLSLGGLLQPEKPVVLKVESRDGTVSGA

SMILES | bioavailability [1] [%] | Kp at 2 h [2] | acute toxicity, general conditions ([3]; 30 mg/kg) | EC50 [4] [nM] | bioavailability [5] [%] | acute toxicity, general conditions ([3]; maximum dose 100 mg/kg) | Ki [6] [nM] | reduction in body weight caused by IL-1β [7] | reduction in food intake caused by IL-1β [7]
CN(C)N(C)C(=O)[C@@]1(Cc2ccccc2)CCCN(C(=O)[C@@H](Cc2c[nH]c3ccccc23)NC(=O)C(C)(C)N)C1 [Anamorelin hydrochloride, anamorelin hydrochloride, reference compound] | 19 | 0.42 | serious anomalous disorders in general conditions such as vomiting, infrequent pulse, tremble, and disorders in walking | 0.15 | 21 | – | – | – | –
CC(C)C[C@@H](NC(=O)C(C)(C)N)C(=O)NC1Cc2cccc(N3CCCC3=O)c2N(Cc2ccsc2)C1=O (stereo partly drawn) [Example 34a, (2R)-2-(2-amino-2-methylpropanamido)-4-methyl-N-[2-oxo-8-(2-oxopyrrolidin-1-yl)-1-(thiophen-3-ylmethyl)-1,2,3,4-tetrahydroquinolin-3-yl]pentanamide hydrochloride] | 84 | 0.06 | – | 0.38 | 35 | only slight vomiting | 86000 | significantly suppressed | significantly suppressed
CC[C@@](C)(N)C(=O)N[C@H](CC(C)C)C(=O)NC1Cc2cccc(N3CCCC3=O)c2N(Cc2ccsc2)C1=O (stereo partly drawn) [Example 34h, (2R)-2-((R)-2-amino-2-methylbutanamido)-4-methyl-N-[2-oxo-8-(2-oxopyrrolidin-1-yl)-1-(thiophen-3-ylmethyl)-1,2,3,4-tetrahydroquinolin-3-yl]pentanamide hydrochloride] | – | – | – | 0.74 | – | – | – | – | –
CC(C)C[C@@H](NC(=O)[C@H](C)N)C(=O)NC1Cc2cccc(N3CCCC3=O)c2N(Cc2ccsc2)C1=O (stereo partly drawn) [Example 25h, (2R)-2-((S)-2-aminopropanamido)-4-methyl-N-[2-oxo-8-(2-oxopyrrolidin-1-yl)-1-(thiophen-3-ylmethyl)-1,2,3,4-tetrahydroquinolin-3-yl]pentanamide] | – | – | – | 6.13 | – | – | – | – | –

From patent publication US8501772B2, “3,8-diaminotetrahydroquinoline derivative” (Zeria Pharmaceutical Co., Ltd., priority 2008, dated 2013)
